Data reported in patent publication US20070123508A1, “PAR2-modulating compounds and their use” (priority 2005, published 2007).

Target: T1, human PAR2 (Homo sapiens, UniProt P55085)
T1 construct: expressed in transfected cells; host or cells: NIH3T3 cells, transiently transfected; receptor in pSI-derived mammalian expression vector
T1 sequence (P55085 26-397): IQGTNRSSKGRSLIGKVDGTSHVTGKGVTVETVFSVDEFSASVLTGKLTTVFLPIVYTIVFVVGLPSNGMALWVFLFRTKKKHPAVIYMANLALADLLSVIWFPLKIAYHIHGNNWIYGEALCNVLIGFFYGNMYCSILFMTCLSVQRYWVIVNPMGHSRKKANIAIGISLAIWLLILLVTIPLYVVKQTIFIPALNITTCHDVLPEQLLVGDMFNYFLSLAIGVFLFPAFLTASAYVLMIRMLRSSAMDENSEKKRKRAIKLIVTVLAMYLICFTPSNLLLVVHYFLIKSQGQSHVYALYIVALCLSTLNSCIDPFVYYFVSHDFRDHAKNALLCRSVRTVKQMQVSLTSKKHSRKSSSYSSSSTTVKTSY
Experiment: Receptor Selection and Amplification Technology (R-SAT) functional receptor assay
Type: cell-based
Details: for EC50: NIH3T3 cells transfected with PAR2, negative log of EC50 (molar); for Emax: percent maximum activation relative to the ligand SLIGRL, read-out: % Efficacy
Protocol: The functional receptor assay, Receptor Selection and Amplification Technology (R-SAT), was used to investigate the pharmacological properties of known and novel PAR2 compounds. R-SAT is disclosed in U.S. Pat. Nos. 5,707,798, 5,912,132, and 5,955,281, all of which are hereby incorporated herein by reference in their entirety, including any drawings.
Briefly, NIH3T3 cells were grown in 96 well tissue culture plates to 70-80% confluence. Cells were transfected for 16-20 h with plasmid DNAs using Polyfect (Qiagen Inc.) using the manufacturer's protocols. R-SATs were generally performed with 4 ng/well of receptor and 20 ng/well of β-galactosidase plasmid DNA. All receptor constructs used were in the pSI-derived mammalian expression vector (Promega Inc). The PAR2 gene was amplified by PCR from genomic DNA using oligodeoxynucleotide primers based on the published sequence (GenBank Accession # Z49993 and Z49994). For large-scale transfections, cells were transfected for 16-20 h, then trypsinized and frozen in DMSO. Frozen cells were later thawed, plated at ˜10,000 cells per well of a 96 half-area well plate that contained drug. With both methods, cells were then grown in a humidified atmosphere with 5% ambient CO2 for five days. Media was then removed from the plates and marker gene activity was measured by the addition of the β-galactosidase substrate o-nitrophenyl β-D-galactopyranoside (ONPG) in PBS with 0.5% NP-40. The resulting colorimetric reaction was measured using a spectrophotometric plate reader (Titertek Inc.) at 420 nm. All data was analyzed using the XLFit (IDBSm) computer program. Efficacy is the percent maximum activation compared to activation by a control compound (SLIGRLm). pEC50 is the negative of the log(EC50), where EC50 is the calculated as a molar concentration (M) that produces 50% maximal activation.
These experiments provide a molecular profile, or fingerprint, for each of these agents at the human PAR2.
Efficacy is relative to the ligand SLIGRL.

SMILES | EC50 | Emax
CC(=NNC(=O)C1C(=O)NCC1c1ccccc1)c1ccc(Br)s1 (mixture of isomers) [Compound 4, 2-Oxo-4-phenyl-3-pyrrolidinecarboxylic acid [1-(5-bromo-thiophen-2-yl)-(E/Z)-ethylidene]-hydrazide] | 631 nM | 87%
CC(=NNC(=O)C1C(=O)NCC1c1ccccc1)c1cccs1 (mixture of isomers) [Compound 5, 2-Oxo-4-phenyl-3-pyrrolidinecarboxylic acid [1-(thiophen-2-yl)-(E/Z)-ethylidene]-hydrazide] | 1580 nM | 52%
CC(=NNC(=O)C1C(=O)NCC1c1ccccc1)c1cc(Br)cs1 (mixture of isomers) [Compound 6, 2-Oxo-4-phenyl-3-pyrrolidinecarboxylic acid [1-(4-bromo-thiophen-2-yl)-(E/Z)-ethylidene]-hydrazide] | 398 nM | 109%

Results, then the compound that gave them:

EC50 | Emax | SMILES
39.8 nM | 134% | CC(=NNC(=O)C1C(=O)NCC1c1ccccc1)c1cccc(Br)c1 (mixture of isomers) [Compound 3, 2-Oxo-4-phenyl-3-pyrrolidinecarboxylic acid [1-(3-bromo-phenyl)-(E/Z)-ethylidene]-hydrazide]
794 nM | 106% | CC(=NNC(=O)C1C(=O)NCC1c1ccccc1)c1cncc(Br)c1 (mixture of isomers) [Compound 7, 2-Oxo-4-phenyl-3-pyrrolidinecarboxylic acid [1-(5-bromo-pyridine-3-yl)-(E/Z)-ethylidene]-hydrazide]
